According to PMC6813460, “Enhancing PLP-Binding Capacity of Class-III ω-Transaminase by Single Residue Substitution” (Frontiers in Bioengineering and Biotechnology, 2019):

How the values were obtained:
CvTA [1] = biological target: T1, CvTA (Chromobacterium violaceum, UniProt Q7NWG4); experiment: differential scanning fluorimetry (SYPRO Orange), T1/[…] vs PLP, 1-site fit; assay type: binding
T1 construct: gene CV_2025; IMAC-purified recombinant from E. coli BL21 (DE3) Star; dimer
T1 sequence (Q7NWG4 1-459): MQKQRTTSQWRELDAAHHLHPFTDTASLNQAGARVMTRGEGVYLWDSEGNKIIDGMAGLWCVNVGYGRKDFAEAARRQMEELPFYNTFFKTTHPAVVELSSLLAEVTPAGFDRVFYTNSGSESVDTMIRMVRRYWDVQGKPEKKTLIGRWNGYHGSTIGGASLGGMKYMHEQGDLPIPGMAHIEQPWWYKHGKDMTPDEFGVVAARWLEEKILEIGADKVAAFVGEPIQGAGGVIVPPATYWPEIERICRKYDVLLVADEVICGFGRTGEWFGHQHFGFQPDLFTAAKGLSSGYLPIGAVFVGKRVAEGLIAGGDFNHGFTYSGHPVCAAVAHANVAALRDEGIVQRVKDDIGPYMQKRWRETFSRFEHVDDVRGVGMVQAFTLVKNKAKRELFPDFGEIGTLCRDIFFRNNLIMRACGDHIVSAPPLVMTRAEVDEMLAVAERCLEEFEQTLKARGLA

CvTA [2] = biological target: T2, CvTA (Chromobacterium violaceum, UniProt Q7NWG4, V124N); experiment: biochemical
T2 construct: gene CV_2025

[3] = biological target: PfTA (Pseudomonas fluorescens); experiment: differential scanning fluorimetry (SYPRO Orange), T1/[…] vs PLP, 1-site fit; assay type: binding; details: apo form, 1 mg/mL protein, PLP 1–250 μM, 50 mM phosphate pH 8; cofactor forms internal aldimine (covalent)
HeTA [4] = biological target: T3, HeTA (Halomonas elongata, UniProt E1V913, N120V); experiment: as above; assay type: binding
T3 construct: gene spuC; IMAC-purified recombinant from E. coli BL21 (DE3) Star; dimer
T3 sequence (E1V913 entry or part of it N120V): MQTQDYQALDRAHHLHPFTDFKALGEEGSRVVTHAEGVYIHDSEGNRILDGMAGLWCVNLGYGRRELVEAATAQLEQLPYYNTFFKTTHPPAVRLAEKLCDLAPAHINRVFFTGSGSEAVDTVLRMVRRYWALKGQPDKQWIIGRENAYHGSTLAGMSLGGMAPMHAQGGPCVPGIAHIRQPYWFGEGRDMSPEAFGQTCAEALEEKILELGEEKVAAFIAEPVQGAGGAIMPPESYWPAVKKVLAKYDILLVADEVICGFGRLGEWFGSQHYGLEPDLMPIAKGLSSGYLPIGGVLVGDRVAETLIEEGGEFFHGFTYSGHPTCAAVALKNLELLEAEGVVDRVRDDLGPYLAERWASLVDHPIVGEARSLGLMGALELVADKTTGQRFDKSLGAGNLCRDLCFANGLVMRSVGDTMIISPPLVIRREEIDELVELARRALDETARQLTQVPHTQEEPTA

HeTA [5] = biological target: T4, HeTA (Halomonas elongata, UniProt E1V913); experiment: as above; assay type: binding
T4 construct: gene spuC; IMAC-purified recombinant from E. coli BL21 (DE3) Star; dimer
T4 sequence (E1V913 1-461): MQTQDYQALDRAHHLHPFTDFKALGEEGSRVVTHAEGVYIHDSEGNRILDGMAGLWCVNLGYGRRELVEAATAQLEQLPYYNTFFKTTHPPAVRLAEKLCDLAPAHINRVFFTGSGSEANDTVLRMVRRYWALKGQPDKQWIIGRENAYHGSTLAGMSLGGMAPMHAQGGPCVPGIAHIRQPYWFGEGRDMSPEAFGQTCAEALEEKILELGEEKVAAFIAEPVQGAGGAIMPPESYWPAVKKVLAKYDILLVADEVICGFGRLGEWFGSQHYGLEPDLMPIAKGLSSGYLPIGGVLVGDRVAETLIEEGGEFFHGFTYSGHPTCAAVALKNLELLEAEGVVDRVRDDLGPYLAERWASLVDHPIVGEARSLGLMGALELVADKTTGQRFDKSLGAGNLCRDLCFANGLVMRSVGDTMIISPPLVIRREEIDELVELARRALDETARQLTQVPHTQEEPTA

[6] = biological target: Pseudomonas fluorescens ω-transaminase (Pseudomonas fluorescens); experiment: crystal structure; PfTA crystallised with PLP; sitting drop vapor diffusion at 20°C; 6 mg/mL protein in 50 mM HEPES pH 7.5, 300 mM NaCl, 0.1 mM PLP, 1% glycerol, 20 mM DTT mixed 1:1 with 0.1 M sodium citrate pH 5.6, 12% w/v PEG 6000, 0.1 M lithium sulfate; 2.2 Å; interfaces analysed with the PISA server

Question: For Cc1ncc(COP(=O)(O)O)c(C=O)c1O [PLP], which Kd (CvTA [1]) is on record?
Answer: 59 ± 15.8 µM

Question: What about the Kd (CvTA [2]) of the same compound?
Answer: 16.4 ± 5.6 µM

Question: And the Kd [3]?
Answer: 14.8 ± 2.5 µM

Question: What about the Kd (HeTA [4]) of the same compound?
Answer: 30.3 ± 4.1 µM

Question: What about the Kd (HeTA [5]) of the same compound?
Answer: 12.4 ± 3.6 µM

Question: With “Pseudomonas fluorescens ω-transaminase (enzyme)” as the compound, how does the stoichiometry N [6] read?
Answer: 4
